Source: article PMC3511043, “The multicomponent approach to N-methyl peptides: total synthesis of antibacterial (–)-viridic acid and analogues” (Beilstein Journal of Organic Chemistry, 2012)

System: Aliivibrio fischeri
Experiment: Aliivibrio fischeri assay: inhibition of bacterial luminescence
Type: cell-based
Conditions: inhibition of bacterial luminescence vs untreated bacteria; 96-well plates; concentration series in DMSO/medium (2% v/v); 24 h incubation at 23 °C in the dark; saline BOSS medium (3% NaCl w/w); read-out: IC50 against the Gram-negative bacterium Aliivibrio fischeri
Source text: To our knowledge no biological screening of pure (−)-viridic acid or its analogues has been performed, and due to the potential of natural peptides and peptoids as antibacterial agents, it was decided to investigate their activity against the Gram-negative bacterium Aliivibrio fischeri. […] Although (−)-viridic acid (1) was isolated thirty years ago, this is the first unambiguous report concerning its biological activity. Based upon the results presented above, it seems that the configuration of the stereogenic center has almost no influence on the antibacterial effect of 1.
The Aliivibrio fischeri assay is based on the measurement of the inhibition of bacterial luminescence against a negative control. Bacteria were pregrown on a saline BOSS medium (3% NaCl w/w) whereby at a certain population density, bacterial luminescence will start. The bacterial suspension was diluted, distributed into 96-well microtiter plates (mtp) and the respective compounds were applied as a concentration series as solutions in DMSO/medium (2% v/v) and mixed. The luminescence of bacteria treated with the respective compounds was measured after 24 h incubation at 23 °C in the dark, in relation to controls of untreated bacteria.
1 Neves Filho, R. A. W.; Stark, S. S.; Morejon, M. C.; Westermann, B.;
3 Malkov, A. V.; Stoncius, S.; Mac Dougall, K. N.; Mariani, A.; McGeoch, G. D.; […]

| Compound | IC50 |
| --- | --- |
| CC(C)C(C(=O)Nc1ccccc1C(=O)O)N(C)C(=O)CNC(=O)c1ccccc1N(C)C (racemic) [(±)-1, racemic viridic acid] | 38.4 ± 5.8 µM |
| CC(C)[C@@H](C(=O)Nc1ccccc1C(=O)O)N(C)C(=O)CNC(=O)c1ccccc1N(C)C [(−)-1, (−)-viridic acid] | 45 ± 4.4 µM |
